Consider seven compounds from publication PMC7591920, “A protein tertiary structure mimetic modulator of the Hippo signalling pathway” (Nature Communications, 2020).

Bridge positions count the residues as written; N and C are the ends. Peptide text beside a SMILES is read from it. Some results are limits rather than exact numbers.

Series [1] concerns the target T1, mTEAD4 (Mus musculus, UniProt Q62296).
T1 construct: Mouse TEAD4(210–427) cDNA fused with a 6x His-tag and a 3C protease cleavage site; 6x His-tag; 3C protease cleavage site; made in house; host or cells: E. coli BL21 DE3 RIL(K+)
The series is described as follows: Competition fluorescence polarization with mTEAD4 (alanine scan). It counts as binding. The following applies: Ac-peptide vs FITC-labelled tracer peptide 10 nM, mTEAD4 400 nM, 1 h. The method, then: Competition FP: N-terminally acetylated peptides were diluted 1:1 in a 384-well plate (5 μL, 75 μM−9 pM). Ten microlitres of a mixture (1:1) of mTEAD4 and FITC-labelled peptide was added (final concentrations: acetylated peptides = 50 μM−6 pM; mTEAD4 protein = 400 nM; FITC-labelled tracer peptide = 10 nM). After 1 h, FP was measured (λ(ex) = […]). IC50 was determined from the binding curve with GraphPad from Prism.
A general note: Polarisation of emitted light reports the rotation of a fluorescent probe.

Series [2] addresses T2, GST-hTEAD1 (Homo sapiens, UniProt P28347).
T2 construct: CDNA of hTEAD1(209–426) fused with an N-terminal GST tag; made in house; host or cells: Escherichia coli BL21 DE3 RIL(K+)
Nature of the series: SPR binding to immobilised GST-hTEAD1. The settings on record: GST-hTEAD1 amine-coupled on CM5, multi-cycle, steady-state fit 1:1 model, 10 mM HEPES 150 mM NaCl 0.05% Tween-20 pH 7.4, 0.3% DMSO, 20 °C, Fig. 1 values n = 1 replicate. As for the experimental part:
(§1) Sensor chips Series S CM5 (Research grade) were obtained from GE Healthcare. Prior to use, the sensor chips were equilibrated at room temperature for 15 min to prevent water condensation on the detector side of the sensor chip surface. A running buffer was prepared composed of 10 mM HEPES, 150 mM NaCl, and 0.05% (w/v) Tween-20, pH 7.4, and the system was equilibrated at 20 °C using a flow rate of 30 µL min^−1 after docking of the sensor chip. Ligand binding experiments have been performed applying the concept of multi-cycle kinetics. A contact time of 45 s was selected, followed by a 6-min dissociation phase to allow for complete dissociation of the analyte prior to the next cycle. […] Typically, seven concentrations of the analytes have been examined applying a threefold dilution pattern with 30 µM as top concentration. For the analysis, five running buffer blanks were injected to equilibrate the instrument. […] The carboxyl-dextran surface was activated for 7 min with 0.05 M NHS and 0.2 M EDC, followed by an injection of the proteins in 10 mM MES pH 6.4 at a concentration of 30–50 µg mL^−1. […] This was followed by a deactivation of the residual esters by injecting a solution of 0.5 M ethanolamine pH 8.0 for 7 min before engaging in ligand binding experiments. Reference surfaces were prepared accordingly, omitting the injection of protein over the activated reference surface.
For orientation: In SPR one partner is held on a chip, and binding of the other changes the refractive index at the surface.

Series [3] concerns the target T1, mTEAD4. The series is described as follows: SPR binding to immobilised mTEAD4. The settings on record: mTEAD4 amine-coupled on CM5, multi-cycle, steady-state fit 1:1 model, 10 mM HEPES 150 mM NaCl 0.05% Tween-20 pH 7.4, 0.3% DMSO, 20 °C, Fig. 1 values n = 1 replicate. As for the experimental part:
as §1

In series [4] the target is T3, hTEAD1 (Homo sapiens, UniProt P28347).
T3 construct: CDNA of hTEAD1(209–426) fused with an N-terminal GST tag; GST (N); 6x His-tag (N); 3C protease cleavage site (N); made in house; host or cells: Escherichia coli BL21 DE3 RIL(K+)
T3 sequence (P28347 209-426): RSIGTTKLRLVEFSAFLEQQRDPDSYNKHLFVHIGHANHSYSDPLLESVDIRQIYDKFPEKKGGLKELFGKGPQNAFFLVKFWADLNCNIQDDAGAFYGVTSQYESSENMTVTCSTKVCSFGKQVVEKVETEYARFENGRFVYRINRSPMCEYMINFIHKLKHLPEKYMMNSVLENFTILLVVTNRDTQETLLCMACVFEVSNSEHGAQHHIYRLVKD
Nature of the series: Direct fluorescence polarization with hTEAD1. The settings on record: direct FP, fluorescent cofactor 10 nM titrated with hTEAD1, 1 h; triplicates; read-out: FP hTEAD1 Kd of FITC labelled cofactor. The class given is binding. The method, then: Supplementary Figure 15│ Binding studies of hTEAD1 by fluorescence polarization. Dissociation constants were measured […]
The fluorescent cofactor (10 nM) are directly titrated with hTEAD1. After 1 hour of incubation, fluorescence polarization was measured, and a non-linear fitting was applied to the curves to determine the […]
In the competitive binding assay, first a complex with the fluorescent cofactor (10 nM) and hTEAD1 (100 nM) was formed and after 1 hour of incubation, the unlabelled peptide was titrated. After 1 hour of incubation, fluorescence polarization was measured, and a non-linear fitting was applied to the curves to determine the half maximal inhibitory concentration. (c) Competition assay […]
Mean ± SEM of triplicates were plotted for all data. Source data are provided as a Source Data file.
(1 picture or pasted object on this page, not shown here)

A short description of series [5]: Circular dichroism, calculated helicity. The class given is physicochemical. The settings on record: 10 mM sodium phosphate pH 7.4, 75 to 10 µM peptide, CDNN software PEPFIT mode, unbound peptide. The method, then: The spectra were obtained using a Jasco J-715 and a cuvette 0.1 mm. Represented CD spectra are an average of five measurements done between λ = 190 and 300 nm with a continuous scan mode, 50 nm min^−1 scan speed and data point every 1 nm. The α-helicity was calculated using CDNN software using the PEPFIT mode[42].

T1 sequence (Q62296 210-427): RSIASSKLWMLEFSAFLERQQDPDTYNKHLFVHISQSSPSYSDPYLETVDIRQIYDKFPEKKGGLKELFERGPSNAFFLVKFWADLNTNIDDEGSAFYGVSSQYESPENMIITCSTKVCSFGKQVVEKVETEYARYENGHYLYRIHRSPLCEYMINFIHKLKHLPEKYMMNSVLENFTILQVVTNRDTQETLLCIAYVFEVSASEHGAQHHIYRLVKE
T2 sequence (P28347 209-426): as the sequence (P28347 209-426) above

As for `CC[C@H](C)[C@@H]1NC(=O)[C@H](CCC(N)=O)NC(=O)[C@H](CC(C)C)NC(=O)[C@H](Cc2c[nH]c3ccccc23)NC(=O)[C@H]([C@@H](C)O)NC(=O)[C@H](CC(=O)O)NC(=O)CNC(=O)[C@H](CC(C)C)NC(=O)[C@H](C)NC(=O)[C@H](CCCCN)NC(=O)[C@H](C)NC(=O)[C@H](C)NC(=O)[C@H](Cc2c[nH]cn2)NC(=O)[C@H](CC(=O)O)NC(=O)[C@@H](NC(=O)[C@@H](NC(=O)[C@H](CO)NC(C)=O)C(C)C)CCC(=O)NCCCC[C@@H](C(=O)N[C@@H](C)C(=O)N[C@@H](C)C(N)=O)NC1=O` [compound 18] (Ac-SVEDHAAKALGDTWLQIKAA-NH2; lactam 3-18), the IC50 (commonly the concentration at which inhibition is half-maximal) in series [1] was > 50 µM. In addition, the Kd in series [2] and in series [3] was > 100 µM in each case.

Consider “Ac-DPVVEEHFRRSLGKNYKEPEPAPNSVSITGSVDDHFAKALGDTWLQIKAAKDSA-NH2 (N-terminus and C-terminus assumed) [compound 1]”, for which the results for the Kd in series [4], in series [2] and in series [3] were 0.017 ± 0.0025 µM, 1.4 µM and 2 µM, respectively.

For the compound `CC[C@H](C)[C@@H]1NC(=O)[C@H](CCC(N)=O)NC(=O)[C@H](CC(C)C)NC(=O)[C@H](Cc2c[nH]c3ccccc23)NC(=O)[C@H]([C@@H](C)O)NC(=O)[C@H](CC(=O)O)NC(=O)CNC(=O)[C@H](C)NC(=O)[C@H](C)NC(=O)[C@H](CCCCN)NC(=O)[C@H](C)NC(=O)[C@H](Cc2ccccc2)NC(=O)[C@H](Cc2c[nH]cn2)NC(=O)[C@H](CC(=O)O)NC(=O)[C@@H](NC(=O)[C@@H](NC(=O)[C@H](CO)NC(C)=O)C(C)C)CCC(=O)NCCCC[C@@H](C(=O)N[C@@H](C)C(=O)N[C@@H](C)C(N)=O)NC1=O` [compound 20] (Ac-SVEDHFAKAAGDTWLQIKAA-NH2; lactam 3-18), in series [1], the IC50 is > 100 µM. The dissociation constant (Kd) in series [2] and in series [3] was > 100 µM in each case.

On to `CC[C@H](C)[C@@H]1NC(=O)[C@H](CCC(N)=O)NC(=O)[C@H](CC(C)C)NC(=O)[C@H](Cc2c[nH]c3ccccc23)NC(=O)[C@H]([C@@H](C)O)NC(=O)[C@H](CC(=O)O)NC(=O)CNC(=O)[C@H](CC(C)C)NC(=O)[C@H](C)NC(=O)[C@H](CCCCN)NC(=O)[C@H](C)NC(=O)[C@H](Cc2ccccc2)NC(=O)[C@H](C)NC(=O)[C@H](CC(=O)O)NC(=O)[C@@H](NC(=O)[C@@H](NC(=O)[C@H](CO)NC(C)=O)C(C)C)CCC(=O)NCCCC[C@@H](C(=O)N[C@@H](C)C(=O)N[C@@H](C)C(N)=O)NC1=O` [compound 17] (Ac-SVEDAFAKALGDTWLQIKAA-NH2; lactam 3-18), for which the IC50 in series [1] is > 100 µM. Besides, the Kd in series [2] and in series [3] was > 100 µM throughout.

Turning to `CC[C@H](C)[C@@H]1NC(=O)[C@H](CCC(N)=O)NC(=O)[C@H](CC(C)C)NC(=O)[C@H](Cc2c[nH]c3ccccc23)NC(=O)[C@H](C)NC(=O)[C@H](CC(=O)O)NC(=O)CNC(=O)[C@H](CC(C)C)NC(=O)[C@H](C)NC(=O)[C@H](CCCCN)NC(=O)[C@H](C)NC(=O)[C@H](Cc2ccccc2)NC(=O)[C@H](Cc2c[nH]cn2)NC(=O)[C@H](CC(=O)O)NC(=O)[C@@H](NC(=O)[C@@H](NC(=O)[C@H](CO)NC(C)=O)C(C)C)CCC(=O)NCCCC[C@@H](C(=O)N[C@@H](C)C(=O)N[C@@H](C)C(N)=O)NC1=O` [compound 22] (Ac-SVEDHFAKALGDAWLQIKAA-NH2; lactam 3-18), the IC50 in series [1] is > 100 µM. The Kd (commonly the concentration at which binding is half-saturated) in series [3] amounted to 113 ± 3.5 µM.

Consider `CC[C@H](C)[C@@H]1NC(=O)[C@H](CCC(N)=O)NC(=O)[C@H](CC(C)C)NC(=O)[C@H](Cc2c[nH]c3ccccc23)NC(=O)[C@H]([C@@H](C)O)NC(=O)[C@H](C)NC(=O)CNC(=O)[C@H](CC(C)C)NC(=O)[C@H](C)NC(=O)[C@H](CCCCN)NC(=O)[C@H](C)NC(=O)[C@H](Cc2ccccc2)NC(=O)[C@H](Cc2c[nH]cn2)NC(=O)[C@H](CC(=O)O)NC(=O)[C@@H](NC(=O)[C@@H](NC(=O)[C@H](CO)NC(C)=O)C(C)C)CCC(=O)NCCCC[C@@H](C(=O)N[C@@H](C)C(=O)N[C@@H](C)C(N)=O)NC1=O` [compound 21] (Ac-SVEDHFAKALGATWLQIKAA-NH2; lactam 3-18), for which the IC50 in series [1] was > 100 µM. In addition, the Kd in series [2] and in series [3] was > 100 µM in each case.

For `CC(=O)N[C@@H](CO)C(=O)N[C@H](C(=O)N[C@@H](CC(=O)O)C(=O)N[C@@H](CC(=O)O)C(=O)N[C@@H](Cc1c[nH]cn1)C(=O)N[C@@H](Cc1ccccc1)C(=O)N[C@@H](C)C(=O)N[C@@H](CCCCN)C(=O)N[C@@H](C)C(=O)N[C@@H](CC(C)C)C(=O)NCC(N)=O)C(C)C` [compound 5] (Ac-SVDDHFAKALG-NH2), the “Helicity (CD)” value in series [5] was < 5%. Further, the Kd in series [2] and in series [3] was > 100 µM in each case.
